Experimental findings from EP4700040A1, “PEPTIDE AND LUMINESCENT COMPLEX CONTAINING SAME” (Shenzhen Loggene Life Science & Technology Co., Ltd., priority 2023, dated 2024) are described below.

What all share (type): biochemical, human
Assay [1] deals with PCT. Nature of the assay: Complementary activity of small subunits mutated at conserved positions, Furimazine substrate (Example 6). The settings on record: MBP-PCT 3.3 ng/ml, supernatant; for activity (luminescence signal value), 3 min: 3 min after Furimazine 25 µM; for activity (luminescence signal value), 6 min: 6 min after Furimazine 25 µM. As to the method: Detection Methods: • (1) The concentration of large subunit-rSCFV5 fusion protein was diluted to 12.5 nM, and 15 µl was added per well; • (2) MBP-PCT fusion protein was diluted to 3.3 ng/ml with PBSAD, and 10 µl was added per well; • (3) HB2151 strain containing plasmids with different small subunit sequences were induced by IPTG at 30°C overnight, then treated with polymyxin B for 1.5h, and centrifuged to collect the supernatant, and 2.5µl supernatant was added per well; • (4) The above three components were slightly mixed, incubated at 37°C for 7 min, and Obuffer 6.37-3 containing Furimazine at a concentration of 25 µM was added, […], the luminescence signal value was detected using a bioluminescence detector; and • (5) Clones with RLU higher than 10,000 were picked. The substrate was replaced with CTZ-h substrate for retesting (Obuffer 6.37-3 containing CTZ-h at a concentration of 25 µM was added, and after 60 s, the luminescence signal value was detected using a bioluminescence detector), and a PBSAD control was added to test the signal-to-noise ratio.
In order to further determine whether these three conserved amino acid sequences were changed, this example constructed a random mutation library of these three positions, with a theoretical diversity of 8,000 and a library capacity of 10^6, and 2,000 single clones were picked. The method of protein induction and expression was the same as that in Example 1. The complementary activity was tested in the same manner as that in Example 4, but the signal-to-noise ratio was not retested with CTZ-h. Clones with different activity were randomly picked for sequencing.

Assay [2] relates to PCT. Nature of the assay: Signal-to-noise ratio and linear range for PCT detection, purified fusion proteins (Example 3). Details: key: luminescence normalized against the background value. The settings on record: PCT 3.3 (pg/ml); normalized against the background value.
Assay [3] relates to PCT. The description is as above. The settings on record: for Signal-to-noise ratio at 1000 pg/ml: large subunit 100 nM, small subunit fusion 180 nM, CTZ-h 25 µM, 140 s; for signal-to-noise ratios in luciferase dual-antibody complementary activation for PCT detection: statement in words on Table 3 and Figure 2. Details: key to luminescence value: luminescence normalized against the background value. As to the method: Test Methods: • (1) MBP-PCT protein was diluted with PBSAD in 10-fold gradient starting from 100 ng/ml, with 8 gradients in total, and 10 µl was added per well; • (2) The large subunit-SCFV5 fusion protein was diluted with PBSA to 100 nM, and 10 µl was added per well; • (3) Different rSCFV18-small subunit mutant fusion proteins were diluted with PBSA to 180 nM, and 10 µl of each was added per well; • (4) The plate was mixed slightly and incubated at 37°C for 10 min; and • (5) 50 µl of Obuffer 6.37-3 containing 25 µM of CTZ-h was added, and after 140 s, the luminescence value was detected. The results are shown after normalization against the background value.

Assay [4] concerns PCT. Kind of assay: Luciferase dual-antibody complementary activation assay for PCT detection, clone supernatants, retest with CTZ-h (Example 1). The settings on record: for Signal-to-noise ratio: RLU antigen+/RLU antigen-, MBP-PCT 3.3 ng/ml, CTZ-h; for PCT+: luminescence signal value with MBP-PCT 3.3 ng/ml, large subunit-rSCFV5 50 nM, supernatant; for PCT+ / PCT-: retest CTZ-h 25 µM, read after 60 s; for PCT-: luminescence signal value, background control PBSAD without PCT. As to the method: In order to improve the signal-to-noise ratio and complementary activity of the luciferase dual-antibody complementary activation assay, a series of complementary luciferase small subunits were prepared in this example. Large subunit-rSCFV5 fusion protein (SEQ ID NO: 87) was kept unchanged, and the small subunit sequence of the rSCFV18-small subunit P114 fusion protein (SEQ ID NO: 88) was modified by semi-randomization to prepare rSCFV18-small subunit mutant fusion proteins. Based on the sequence of small subunit P114, and with reference to the 3D structure of complementary luciferase, computer-aided sequence design was employed to generate a library with a theoretical diversity of 2.49*10^6. Primers were designed for PCR amplification using the plasmid pComb3x of rSCFV18-small subunit P114 fusion protein as a template. Subsequently, an expression vector library was constructed by means of restriction digestion and ligation (SfiI, NheI), and a semi-random amino acid mutation library was introduced into the small subunit position and transformed into HB2151 competent cells, yielding a library capacity of 7.6*10^9. The 100 plates were spread, and 9,500 single clones were picked and inoculated into 600 µL of 2YTA medium, followed by incubation at 37°C with shaking at 250 rpm for 2 h. When the bacterial density reached approximately OD600 = 0.6~1.0, IPTG was then added to a final concentration of 1 mM, and the culture was further incubated at 30°C with shaking at 250 rpm for 20 h. The next day, the bacteria were collected by centrifugation at 4°C, 4,500g for 10min. The supernatant was discarded, and the precipitate was resuspended with 200µl of PBS containing polymyxin B at a final concentration of 20,000 u/ml. The suspension was incubated at room temperature with shaking at 100rpm for 1h, and then centrifuged at 4500g for 10min, and the supernatant was used for the test.
Test Methods: • (1) The concentration of large subunit-rSCFV5 fusion protein was diluted to 50 nM, and 15 µl was added per well; • (2) MBP-PCT fusion protein was diluted to 3.3 ng/ml with PBSAD, and 15 µl was added per well. The background control was PBSAD, and 10 µl was added per well; • (3) HB2151 strain containing expression plasmids with different small subunit were induced by 1 mM of IPTG at 30°C overnight, then treated with polymyxin B for 1.5 h, and centrifuged to collect the supernatant, and 2.5 µl supernatant was added per well; • (4) The above three components were slightly mixed, incubated at 37°C for 7 min, and Obuffer 6.37-3 containing Furimazine at a concentration of 25 µM was added, and after 80 s, the luminescence signal value was detected using a bioluminescence detector; and • (5) Clones with RLU higher than 10,000 and a signal-to-noise ratio (RLU antigen+/RLU antigen-) higher than that of the rSCFV18-small subunit P114 fusion protein were selected for retesting. The substrate was replaced with CTZ-h for retesting. Obuffer 6.37-3 containing CTZ-h at a concentration of 25 µM was added, and after 60 s, the luminescence signal value was detected using a bioluminescence detector.

The mark [5] stands for this setting: PCT 100 (pg/ml), normalized against the background value.
The mark [6] stands for this setting: PCT 1000 (pg/ml), normalized against the background value.
The mark [7] stands for this setting: PCT 10000 (pg/ml), normalized against the background value.
Setting [8] is: PCT 100000 (pg/ml), normalized against the background value.

For the sequence IEGYRLFDRKS [RD-092], in the assay on PCT [1], the “activity (luminescence signal value), 3 min” value (from here on “activity … 3 min”) is listed as 4905 and the “activity (luminescence signal value), 6 min” value (shortened to “activity … 6 min”) is 4539.
The corresponding values for AEGYRLFDRKS [RD-045] are 2398 and 2087.
Turning to AESYKLFDRKS [RD-100], in the assay on PCT [1], the “activity … 3 min” value is 44 and the “activity … 6 min” value is recorded as 214.
On to VSGWRIHEKIS [RA120], for which the luminescence value is 5257 in the assay with PCT [2]; 5000 in the assay with PCT [3] (PCT 0, background, normalized); 13450 in the assay on PCT [3] (setting [5]); 90072 in the assay with PCT [3] (setting [6]); 694625 in the assay on PCT [3] (setting [7]); 1999707 in the assay with PCT [3] (setting [8]). In addition, in the assay with PCT [3], the “Signal-to-noise ratio at 1000 pg/ml” value worked out at 18.0. Also, in the assay on PCT [3], the “signal-to-noise ratios in luciferase dual-antibody complementary activation for PCT detection” value (“signal-to-noise ratios” below) is reported as “higher signal-to-noise ratios”. For the same sequence, in the assay on PCT [4], the Signal-to-noise ratio was determined as 36.9. Also, in the assay with PCT [4], the “PCT+” value is 81063. In the assay on PCT [4], this sequence gave a PCT- of 2139.
On to VDGWRLHEKIS [RA141], for which the luminescence value turned out to be 5414 in the assay with PCT [2]; 5000 with PCT [3] (PCT 0, background, normalized); 8685 in the assay with PCT [3] (setting [5]); 42762 in the assay with PCT [3] (setting [6]); 333241 with PCT [3] (setting [7]); 1399433 in the assay with PCT [3] (setting [8]). Besides, in the assay with PCT [3], the “Signal-to-noise ratio at 1000 pg/ml” value was 8.6. Also, the “signal-to-noise ratios” value with PCT [3] is recorded as “higher signal-to-noise ratios”. Moreover, the Signal-to-noise ratio in the assay with PCT [4] was 65.1. Further, in the assay with PCT [4], the “PCT+” value amounted to 30623. The same sequence had a PCT- in the assay with PCT [4] of 463.
As to VEPYKLFDRKS [RD-104], in the assay on PCT [1], the “activity … 3 min” value was 215 and the “activity … 6 min” value was found to be 222.
Take VEGYRLFNKEW [RB284]: the luminescence value is listed as 5288 in the assay with PCT [2]; 5000 with PCT [3] (PCT 0, background, normalized); 7039 with PCT [3] (setting [5]); 24677 in the assay on PCT [3] (setting [6]); 187742 in the assay on PCT [3] (setting [7]); 861878 with PCT [3] (setting [8]). Also, in the assay on PCT [3], the “Signal-to-noise ratio at 1000 pg/ml” value is recorded as 4.9. Moreover, the “signal-to-noise ratios” value with PCT [3] was “higher signal-to-noise ratios”. In addition, the Signal-to-noise ratio with PCT [4] was found to be 12.2. Besides, the “PCT+” value in the assay on PCT [4] amounted to 3993. For the same sequence, the PCT- with PCT [4] was determined as 302.
Take AEGYHLFRSKS [RD-108]: in the assay on PCT [1], the “activity … 3 min” value is 50 and the “activity … 6 min” value is listed as 53.
The corresponding values for AEPYRIFDRKS [RD-099] are 221 and 52.
On to VEGYRLFERIW [RB240], for which, in the assay on PCT [4], the Signal-to-noise ratio amounted to 35.3, the “PCT+” value stood at 50183 and the PCT- is 1384.
For AEGYRLFDRKS [RD-012], in the assay on PCT [1], the “activity … 3 min” value is listed as 3586 and the “activity … 6 min” value is given as 2963.
The corresponding values for AEGYRLFDRKS [RD-086] are 3394 and 3222.
For VEGYRLFERKS [RB033], in the assay on PCT [4], the Signal-to-noise ratio was determined as 25.7, the “PCT+” value is reported as 109352 and the PCT- worked out at 4101.
Turning to IEGYRLFDRKS [RD-084], in the assay on PCT [1], the “activity … 3 min” value is reported as 2497 and the “activity … 6 min” value is 2394.
As for VEGYRLFNRKS [RB252], in the assay with PCT [4], the Signal-to-noise ratio was found to be 20.3, the “PCT+” value was 70963 and the PCT- stood at 3324.
The corresponding values for VEGYRLFDRKW [RB186] are 45.1, 27190 and 590.
For the sequence VEGYRLHEKIS [RA128], in the assay with PCT [4], the Signal-to-noise ratio was determined as 45.2, the “PCT+” value amounted to 17891 and the PCT- stood at 387.
The corresponding values for VEGYRLFKREL [RB152] are 40, 37150 and 906.
The corresponding values for VEGYRLFERVL [RB150] are 32.1, 53945 and 1630.
On to VEGYHLFDRKS [RD-103], for which, in the assay with PCT [1], the “activity … 3 min” value is on record as 211 and the “activity … 6 min” value came out at 204.
Turning to VEGYRLFERKW [RB035], in the assay with PCT [4], the Signal-to-noise ratio was determined as 31.6, the “PCT+” value is listed as 58318 and the PCT- is recorded as 1790.
The corresponding values for VEGYRLFERKL [RB157] are 25.2, 74319 and 2837.
VEGYRLFNRKS [RB075]: in the assay on PCT [4], the Signal-to-noise ratio was determined as 27.1, the “PCT+” value is 76733 and the PCT- was found to be 2735.
Consider VEPYKLFDRKS [RD-098], for which, in the assay with PCT [1], the “activity … 3 min” value is 214 and the “activity … 6 min” value amounted to 49.
VEGYRLFNEKS [RB195]: in the assay on PCT [4], the Signal-to-noise ratio turned out to be 30.8, the “PCT+” value is reported as 41519 and the PCT- is reported as 1307.
On the same counts, the results for VEGYRLFDRKL [RB209] are 33.6, 37398 and 1080.
The corresponding values for VEGYRLFEKKL [RB149] are 21, 79060 and 3587.
